Calls of active or inactive are those of the source. No rule for the calls is given here. A value given as a limit tells only on which side of the number the result lay.

For this experiment, the system named is Ga16-expressing cells, calcium fluorescence, counterscreen for TAAR1 agonists. The experiment in a line: nonselective Ga16 agonists, potency, SAR follow-up, counter-screen for TAAR1 agonist project, cell-based, fluorescence, dose response, MedChem round 1 (AID 743496).
As for `NC(=O)CCN1C[C@H](c2ccccc2)[C@@H]2[C@H]1C1CCN2CC1`, the EC50 (as a rule, the concentration that produces a half-maximal response) is > 29.9 µM (inactive).

Take `O=C(CCN1C[C@@H](C(=O)O)[C@H](c2ccccc2)C1)NC1CCCC1`: the EC50 was > 29.9 µM (inactive).

Turning to `O=C(CCN1CCC(O)(c2ccc(F)cc2)C1)c1ccc2c(c1)OCCO2` (stereo unspecified), the EC50 was > 29.9 µM (inactive).

As for `Cc1ccc(C(=O)CCN2CCC(c3ccccc3)C2)cc1` (stereo unspecified), the EC50 is > 29.9 µM (inactive).

Regarding `O=C(CCN1C[C@@H](C(=O)O)[C@H](c2cccc(F)c2)C1)NC1CC1`, the EC50 is > 29.9 µM (inactive).

On to `CC1CN(CCC(=O)c2ccc3c(c2)OCCO3)CC1c1ccccc1` (stereo unspecified), for which the EC50 is > 29.9 µM (inactive).

Take `CC(CN1CCCC1Cc1ccccc1)C(=O)c1ccc2c(c1)OCCO2` (stereo unspecified): the EC50 is > 29.9 µM (inactive).

As to `O=C(CCN1CCC(O)(c2ccccc2)C1)c1ccc2c(c1)OCCO2` (stereo unspecified), the EC50 is > 29.9 µM (inactive).

Regarding `O=C(CCN1C[C@@H](C(=O)O)[C@H](c2ccccc2)C1)NCc1cccs1`, the EC50 was > 29.9 µM (inactive).

Take `O=C(CCN1CCC(c2ccccc2)C1)c1ccccc1` (stereo unspecified): the EC50 was > 29.9 µM (inactive).

On to `CC(CN1CCC(c2ccccc2)C1)C(=O)c1ccc2c(c1)OCCO2` (stereo unspecified), for which the EC50 is > 29.9 µM (inactive).

The values are drawn from PubChem BioAssay AID743496 (The Scripps Research Institute Molecular Screening Center, 2014).
